According to US7829560B2, “1,4-disubstituted naphthalenes as inhibitors of P38 MAP kinase” (Arqule, Inc., priority 2004, dated 2010):

Assays:
[1] = tested on: TNFα release from THP-1 cells; assay: Inhibition of TNFα release from LPS-stimulated THP-1 cells, ELISA; assay type: cell-based; conditions: Homo sapiens, THP-1, THP-1 cells, read-out: [CELL] THP-1, IC50, TNF ALPHA, ELISA
From the text: Compounds of the invention are screened for the ability to inhibit TNFα and IL-1β release from THP-1 cells stimulated with lipopolysaccharide (LPS) in vitro. The ability of compounds to inhibit TNFα and IL-1β release in this in vitro assay is correlated with the inhibition of p38 activity and TNFα and IL-1β expression in vivo, and is therefore an indicator of potential in vivo therapeutic activity (Lee J. C. et al, Ann. N.Y. Acad. Sci. 696: 149-170, 1993 and Nature, 372: 739-746, 1994).
Materials: THP-1 cells from ATCC (TIB202) are maintained at 37° C., 5% CO2 in RPMI 1640 media (available from MediaTech, Herndon, Va.) containing 4.5 g/L glucose, supplemented with 10% fetal bovine serum, 1% penicillin/streptomycin and 50 μM β-mercaptoethanol.
Methods: Test compounds are initially dissolved in RPMI media with 1% DMSO (v/v). Compounds are then serially diluted in RPMI media for all subsequent dilutions. The assay is performed under sterile conditions. THP-1 cells at a culture density of 6-8×10^5 cells/ml are collected and resuspended in the RPMI media at 10^6 cells/ml containing 10% fetal bovine serum, no serum or 1% human serum albumin (HSA). 100 μl of resuspended cells are added to each well, which contain 100 μl of a test compound. Test compounds are prepared at twice the final concentration. Final DMSO concentration is no more than 0.5% (v/v). Cells are preincubated with compound for 30 minutes at 37° C., 5% CO2 prior to stimulation with lipopolysaccharide (LPS) (Sigma L-2880, 4 mg/ml stock in PBS). The final LPS concentration in each well is 10 or 30 μg/ml for TNFα and IL-1β release, respectively. Unstimulated control cell suspensions receive PBS vehicle only. Cell mixtures are incubated for 18 or 48 hours for TNFα and IL-1β prelease, respectively. 150 μl of supernatants are taken and transferred to a fresh plate and stored at −20° C. until further analysis. TNFα and IL-1β levels are measured using ELISA kits from Biosource (Catalog no. KHC3012 for TNFα; KAC1192 for IL-1β). A SpectraMAX 250 is used as the plate reader. Analysis is performed by non-linear regression to generate a dose response curve. The calculated IC50 value is the concentration of the test compound that causes a 50% decrease in TNFα or IL-1β levels.

p38α = target: T1, p38α (Homo sapiens, UniProt Q16539); assay: p38 MAP Kinase assay: inhibition of ATF2 phosphorylation, ELISA; assay type: biochemical; conditions: for IC50: ATF2 phosphorylation, read-out: [ENZ] P38 ALPHA, IC50, ELISA; for inhibition at 10 µM: substrate ATF2, read-out: [ENZ] P38 ALPHA, PCT INH, ELISA (10 uM;ATF2) (Percent)
T1 construct: p38 MAP Kinases are recombinant human full-length proteins with an amino-terminal GST fusion; GST (N); purchased Upstate Biotechnology Inc; host or cells: E. coli
T1 sequence (Q16539 whole entry, the tested form may be a part): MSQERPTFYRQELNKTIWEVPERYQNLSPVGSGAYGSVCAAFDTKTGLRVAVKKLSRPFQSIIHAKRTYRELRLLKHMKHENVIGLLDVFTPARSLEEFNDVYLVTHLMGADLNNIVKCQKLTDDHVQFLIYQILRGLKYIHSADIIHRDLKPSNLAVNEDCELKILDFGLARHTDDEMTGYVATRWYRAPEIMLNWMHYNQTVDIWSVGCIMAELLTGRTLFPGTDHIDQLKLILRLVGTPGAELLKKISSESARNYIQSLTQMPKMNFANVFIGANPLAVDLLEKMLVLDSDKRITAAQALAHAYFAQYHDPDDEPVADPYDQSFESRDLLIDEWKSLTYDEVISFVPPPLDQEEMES
From the text: Compounds of the invention are screened for the ability to inhibit ATF2 phosphorylation by p38 MAP Kinase in vitro. The ability of compounds to inhibit ATF2 phosphorylation in this in vitro assay is correlated with the inhibition of p38 MAP Kinase and TNFα expression in vivo, and is therefore an indicator of potential in vivo therapeutic activity (Raingeaud, J., et al, J. Biol. Chem., 270: 7420-7426, 1995, Brinkman, M. N., et al, J. Biol. Chem. 274: 30882-30886, 1999 and Fuchs, S. Y. et al, J. Biol. Chem. 275: 12560-12564, 2000).
Materials: All kinases and the substrate ATF2 are acquired from Upstate Biotechnology Inc. p38 MAP Kinases are recombinant human full-length proteins with an amino-terminal GST fusion, expressed in and purified from E. coli. ATF2 is a GST fusion protein containing amino acids 19-96 of human ATF2 expressed in E. coli. All proteins are aliquoted and stored at −80° C.
Methods: p38 MAP Kinase assays are performed using an assay buffer containing 25 mM HEPES, pH 7.5, 10 mM MgCl2, 2 mM DTT, 20 mM β-glycerophosphate, 0.1 mM Na3VO4, 40 μM ATP and 1.25 μM of ATF2 and in the absence or presence of 1% human serum albumin, Method I and II, respectively, with 0.4-6 ng of protein depending on the kinase used. Compounds are serially diluted in DMSO and 2 μL of test compound at 25× final concentration is used. The vehicle control receives DMSO only. Test compounds are pre-incubated with 20 μl of enzyme in kinase buffer (25 mM HEPES, pH 7.5, 10 mM MgCl2, 2 mM DTT, 20 mM β-glycerophosphate, 0.1 mM Na3VO4 in the absence or presence of 1% human serum albumin, Method I and II, respectively) at room temperature for 15 minutes. […] The reactions are incubated for 30 minutes at 37° C. and terminated by the addition of 18 μl of 200 mM EDTA. An ELISA method (I or II) is used to measure the phosphorylation of ATF2 at Thr 69. Method I: 96-well high binding plates (Corning 3369) are coated with 50 μl of kinase reaction for 1 hour at 37° C. The coated plates are washed with 200 μl washing buffer (25 mM Tris HCl, pH 8.3, 192 mM glycine, 0.1% SDS and 0.05% Tween-20) three times. The plates are then washed three times with SuperBlock in TBS (Pierce, 37535). After blocking, plates are incubated with 50 μl of rabbit anti-phospho-ATF2 antibody (Cell Signaling, 9221L, 1:500) for 30 minutes at 37° C. Plates are washed three times with washing buffer prior to incubation with 50 μl HRP-conjugated goat anti-rabbit antibody (Cell Signaling, 7074, 1:500) for 30 minutes at 37° C. Plates are then washed three times with washing buffer before incubation with 50 μl of Ultra TMB-ELISA (Pierce, 34028) for 8 minutes at room temperature. Finally, 50 ul of phosphoric acid (1 M) is added to stop reactions and plate absorbance is read at 450 nm on a SpectraMax 250 plate reader. Method II: 96-well high binding plates (Corning 3369) are coated with 400 ng of monoclonal antibody against GST-tag (Cell signaling) in 100 μl containing sodium borate (pH 8.3) for 90 minutes at 37° C. The plates are washed with 200 μl washing buffer (25 mM Tris HCl, pH 7.2, 150 mM NaCl and Tween-20) three times and blocked with 200 μl of 5% nonfat milk for 30 minutes at room temperature. The plates are washed three times with washing buffer, 50 μl of stopped kinase reaction are added to each well and incubated for 80 minutes at 37° C. The plates are washed three times with 200 μl washing buffer, and the plates are incubated with 50 μl of rabbit anti-phospho-ATF2 antibody (Cell Signaling, 9221L, 1:500) for 30 minutes at 37° C. Plates are washed three times with washing buffer prior to incubation with 50 μl HRP-conjugated goat anti-rabbit antibody (Cell Signaling, 7074, 1:500) for 30 minutes at 37° C. Plates are washed three times with washing buffer before incubation with 50 μl of Ultra TMB-ELISA (Pierce, 34028) for 25 minutes at room temperature. Finally, 50 μl of phosphoric acid (1 M) is added to stop reactions and plate absorbance is read at 450 nm on a SpectraMax 250 plate reader. […]

SMILES	IC50 [1] [µM]	IC50 (p38α) [µM]	inhibition at 10 µM (p38α) [%]
O=C(Nc1ccc(Oc2ccnc(N3CCCCC3)n2)c2ccccc12)c1cc(F)cc(N2CCCCC2)c1 [Compound B375, 3-Fluoro-5-piperidin-1-yl-N-{4-[(2-piperidin-1-ylpyrimidin-4-yl)oxy]-1-naphthyl}benzamide]	> 1	0.107	–
O=C(Nc1ccc(CCCN2CCOCC2)c2ccccc12)c1cc(F)cc(N2CCOCC2)c1 [Compound B240, 3-Fluoro-5-morpholin-4-yl-N-[4-(3-morpholin-4-yl-propyl)-naphthalen-1-yl]-benzamide]	1.01	1.01	–
CN(C)c1cccc(C(=O)Nc2ccc(OCCN3CCOCC3)c3ccccc23)c1 [Compound B33]	> 10	29.8	–
CCc1ccccc1-c1cccc(C(=O)Nc2ccc(OCCN3CCOCC3)c3ccccc23)c1 [Compound B291]	6.14	9.19	–
O=C(Nc1ccc(OCCN2CCOCC2)c2ccccc12)c1cccc(-c2cccc(OC(F)(F)F)c2)c1 [Compound B297]	> 10	> 10	–
CNc1nccc(Oc2ccc(NC(=O)c3cc(F)cc(N4CCOCC4)c3)c3ccccc23)n1 [Compound B251, 3-Fluoro-N-(4-{[2-(methylamino)pyrimidin-4-yl]oxy}-1-naphthyl)-5-morpholin-4-ylbenzamide]	0.765	0.135	–
O=C(Nc1ccc(OCCN2CCOCC2)c2ccccc12)c1cccc(-c2cc(Cl)ccc2Cl)c1 [Compound B295]	2.83	5.03	–
Cc1cc(F)ccc1-c1cccc(C(=O)Nc2ccc(Oc3ccnc(NCC(C)(C)CN(C)C)n3)c3ccccc23)c1 [Compound B314, 4′-Fluoro-2′-methyl-biphenyl-3-carboxylic acid {4-[2-(3-dimethylamino-2,2-dimethyl-propylamino)-pyrimidin-4-yloxy]-naphthalen-1-yl}-amide]	0.0412	0.001	–
COc1cccc(OC)c1-c1cccc(C(=O)Nc2ccc(OCCN3CCOCC3)c3ccccc23)c1 [Compound B108]	2.26	> 10	42
CC1CCC(Oc2cc(F)cc(C(=O)Nc3ccc(OCCN4CCOCC4)c4ccccc34)c2)CC1 (stereo not shown) [Compound B234, 3-Fluoro-5-[(4-methylcyclohexyl)oxy]-N-[4-(2-morpholin-4-ylethoxy)-1-naphthyl]benzamide]	3.19	1.05	–
CC(=O)Nc1cccc(C(=O)Nc2ccc(OCCN3CCOCC3)c3ccccc23)c1 [Compound B32]	> 10	7.49	–
Cc1cccc(-c2cccc(C(=O)Nc3ccc(OCCN4CCOCC4)c4ccccc34)c2)c1C [Compound B296]	8.71	1.88	–
C=Cc1ccc(-c2cccc(C(=O)Nc3ccc(OCCN4CCOCC4)c4ccccc34)c2)cc1 [Compound B281]	> 10	> 10	–
CCN1CCC[C@H]1CNc1nccc(Oc2ccc(NC(=O)c3cc(F)cc(N4CCCCC4)c3)c3ccccc23)n1 [Compound B419, N-(4-{[2-({[(2S)-1-Ethylpyrrolidin-2-yl]methyl}amino)pyrimidin-4-yl]oxy}-1-naphthyl)-3-fluoro-5-piperidin-1-ylbenzamide]	0.0554	0.003	–
O=C1CCN(c2cc(F)cc(C(=O)Nc3ccc(OCCN4CCOCC4)c4ccccc34)c2)CC1 [Compound B198, 3-Fluoro-N-[4-(2-morpholin-4-yl-ethoxy)-naphthalen-1-yl]-5-(4-oxo-piperidin-1-yl)-benzamide]	8.5	1.77	–
Cc1cc(Cl)ccc1-c1cccc(C(=O)Nc2ccc(OCCN3CCOCC3)c3ccccc23)c1 [Compound B293]	> 10	10.3	–
O=C(Nc1ccc(Oc2ccnc(NC[C@@H]3CCCO3)n2)c2ccccc12)c1cc(F)cc(N2CCOCC2)c1 [Compound B358]	0.0095	0.0032	–
Cc1ccc(C)c(-c2cccc(C(=O)Nc3ccc(OCCN4CCOCC4)c4ccccc34)c2)c1 [Compound B287, 2′,5′-dimethyl-biphenyl-3-carboxylic acid [4-(2-morpholin-4-yl-ethoxy)-naphthalen-1-yl]-amide]	5	0.934	–
Cc1cccc(-c2cccc(C(=O)Nc3ccc(OCCN4CCOCC4)c4ccccc34)c2)c1 [Compound B104]	4.44	0.965	66
O=C(Nc1ccc(Oc2ccnc(NC3(CO)CCCC3)n2)c2ccccc12)c1cc(F)cc(N2CCCCC2)c1 [Compound B399, 3-Fluoro-N-{4-[(2-{[1-(hydroxymethyl)cyclopentyl]amino}pyrimidin-4-yl)oxy]-1-naphthyl}-5-piperidin-1-ylbenzamide]	0.136	0.0127	–
O=C(Nc1ccc(OCCN2CCOCC2)c2ccccc12)c1cccc(-c2cccc(Cl)c2Cl)c1 [Compound B282]	4.77	3.67	–
O=C(Nc1ccc(OCCN2CCOCC2)c2ccccc12)c1cccc(-c2cccc(F)c2)c1 [Compound B272]	3.4	–	–
CN(C)C(=O)[C@@H]1CCCN1c1nccc(Oc2ccc(NC(=O)c3cc(F)cc(N4CCCCC4)c3)c3ccccc23)n1 [Compound B408]	> 1	–	–
